Measured values as given in patent publication US20260193257A1, “BICYCLIC DERIVATIVES” (Elanco Tiergesundheit AG, priority 2018, published 2026).

Assays:
[1] = tested on: H. contortus (H.c.) larvae; assay: Ruminant gastrointestinal (H. contortus) larval motility assay; conditions: Haemonchus contortus, read-out: EC50 (motility inhibition)
Experimental: H.c. eggs isolated from lamb fecal matter are allowed to hatch overnight. Test compounds are diluted in DMSO and added to a 96-well plate containing appropriate media. H.c. larvae are added to each well and plates are incubated for the desired time(s). Motility is assessed using an LCD camera imaging system. Percent motility inhibition values are generated relative to the average of the DMSO-only wells.

[2] = tested on: T. colubriformis; assay: Gastro intestinal nematodes, infected jird model (T. colubriformis); conditions: Jirds (Meriones unguiculatus), oral, Day 6 after infection, dose between 1×3 mg/kg and 1×32 mg/kg, worms recovered from small intestine three days after treatment
Experimental: Jirds (Meriones unguiculatus), are artificially infected by gavage with third instar larvae each of T. colubriformis and H. contortus. Then treated orally with the test compound formulated in eg DMSO/PEG 2/1, on Day 6 after infection at a dose in a range between 1×3 mg/kg up to 1×32 mg/kg. Three days after treatment, gerbils are euthanized and dissected to recover H. contortus from stomach and T. colubriformis from the small intestine. Efficacy is expressed as a % reduction in worm numbers in comparison with a placebo treated group, using the Abbot's formula.

[3] = tested on: D. immitis microfilariae; assay: Dog heart worm microfilariae motility assay; assay type: cell-based; conditions: Dirofilaria immitis, read-out: EC50 (motility inhibition)
[4] = tested on: L. sigmodontis; assay: L.s. model in mice; conditions: oral gavage, dose between 1×3 mg/kg and 5×32 mg/kg, necropsy 5 weeks after infection
Experimental: Model Mice, injected subcutaneously with infective L. sigmodontis larvae, were subsequently treated with the test article formulated in eg DMSO/PEG 2/1, by oral gavage at a dose in a range between 1×3 mg/kg up to 5×32 mg/kg (one dose per day for 5 consecutive days). At necropsy 5 weeks after infection, efficacy is calculated by counting developed larvae vs. untreated animals using Abbot's formula.

SMILES | EC50 [1] [µg/mL] | Efficacy against Tc (% reduction in worm numbers vs placebo, Abbot's formula) [2] [%] | EC50 [3] [µg/mL] | Efficacy against Ls (developed larvae vs. untreated animals, Abbot's formula) [4] [%]
CN(C)c1c(NC(=O)[C@@H]2CCOc3ccccc32)cnc2c(-c3cc(Cl)cc(Cl)c3)cccc12 [Example 1.1, (4R)—N-[8-(3,5-dichlorophenyl)-4-(dimethylamino)-3-quinolyl]chromane-4-carboxamide] | < 1 | > 80 | < 0.1 | –
CN(C)c1c(NC(=O)[C@@H]2CCCc3ccccc32)cnc2c(-c3cc(Cl)cc(Cl)c3)cccc12 [Example 1.3, (1R)-N-[8-(3,5-dichlorophenyl)-4-(dimethylamino)-3-quinolyl]tetralin-1-carboxamide] | – | – | < 0.1 | –
CN(C)c1c(NC(=O)[C@H]2CCCc3ccccc32)cnc2c(-c3cc(Cl)cc(Cl)c3)cccc12 [Example 1.4, (1S)-N-[8-(3,5-dichlorophenyl)-4-(dimethylamino)-3-quinolyl]tetralin-1-carboxamide] | < 1 | – | < 0.1 | > 80
O=C(Nc1cnc2c(-c3cc(Cl)cc(Cl)c3)cccc2c1C1CC1)[C@H]1CCOc2ccccc21 [Example 1.6, (4S)-N-[4-cyclopropyl-8-(3,5-dichlorophenyl)-3-quinolyl]chromane-4-carboxamide] | < 1 | – | < 0.1 | –
CON(C)c1c(NC(=O)[C@@H]2CCOc3ccccc32)cnc2c(-c3cc(Cl)cc(Cl)c3)cccc12 [Example 1.7, (4R)-N-[8-(3,5-dichlorophenyl)-4-[methoxy(methyl)amino]-3-quinolyl]chromane-4-carboxamide] | – | – | < 0.1 | –
CN(C)c1c(NC(=O)[C@H]2CCOc3ccccc32)cnc2c(-c3cccc(Cl)c3Cl)cccc12 [Example 1.9, (4S)-N-[8-(2,3-dichlorophenyl)-4-(dimethylamino)-3-quinolyl]chromane-4-carboxamide] | < 1 | – | < 0.1 | –
CN(C)c1c(NC(=O)[C@H]2CCOc3ccccc32)cnc2c(-c3cc(Cl)cc(C(F)(F)F)c3)cccc12 [Example 1.11, (4S)-N-[8-[3-chloro-5-(trifluoromethyl)phenyl]-4-(dimethylamino)-3-quinolyl]chromane-4-carboxamide] | < 1 | – | < 0.1 | –
O=C(Nc1cnc2c(-c3cc(Cl)cc(Cl)c3)cccc2c1N1CCOCC1)[C@H]1CCOc2ccccc21 [Example 1.12, (4S)-N-[8-(3,5-dichlorophenyl)-4-morpholino-3-quinolyl]chromane-4-carboxamide] | < 1 | – | < 0.1 | –
CN(C)c1c(NC(=O)[C@@H]2CCOc3ccccc32)cnc2c(-c3cc(Cl)cc(Cl)c3)nccc12 [Example 4.2, (4R)-N-[8-(3,5-dichloro-dichlorophenyl)-4-(dimethylamino)-1,7-naphthyridin-3-yl]chromane-4-carboxamide] | < 1 | – | – | –
CN(C)c1c(NC(=O)[C@@H]2CCOc3ccccc32)cnc2c(-c3cc(Cl)cc(Cl)c3)ccnc12 [Example 6.1, (4R)—N-[8-(3,5-dichlorophenyl)-4-(dimethylamino)-1,5-naphthyridin-3-yl]chromane-4-carboxamide] | < 1 | – | – | –
CN(C)c1c(NC(=O)[C@H]2CCOc3ccccc32)cnc2c(-c3cc(Cl)cc(Cl)c3)ccnc12 [Example 6.2, (4S)-N-[8-(3,5-dichlorophenyl)-4-(dimethylamino)-1,5-naphthyridin-3-yl]chromane-4-carboxamide] | < 1 | – | < 0.1 | –
O=C(Nc1cnc2c(-c3cc(Cl)cc(Cl)c3)ccnc2c1N1CCOCC1)[C@H]1CCOc2ccccc21 [Example 6.3, (4S)-N-[8-(3,5-dichlorophenyl)-4-morpholino-1,5-naphthyridin-3-yl]chromane-4-carboxamide] | < 1 | – | < 0.1 | –
CN(C)c1c(NC(=O)N[C@H]2CCOc3ccccc32)cnc2c(-c3cc(Cl)cc(Cl)c3)cccc12 [Example 7.1, 1-[(4S)-Chroman-4-yl]-3-[8-(3,5-dichlorophenyl)-4-(dimethylamino)-3-quinolyl]urea] | < 1 | – | – | –
